Experimental data taken from patent publication US20050238666A1, “Methods of enhancing stem cell engraftment” (priority 2003, published 2005).

How the values were obtained:
[1] = tested on: hematopoietic progenitor cells; test: Colony assay in methylcellulose (CFU) of transduced bone marrow progenitor cells; format: cell-based, mouse; details: expression of the transgene in the cells; FIG. 9
Description: Mouse Low Density Bone Marrow (LDBM) Isolation and Viral Transduction: Whole bone marrow was collected from C57B1/6 animals (Jackson Laboratory, Bar Harbor, Me.), 48 h after treatment with 5-fluorouracil (150 mg/kg of body weight, IP; American Pharmaceutical Partners, Los Angeles, Calif.) and was re-suspended in RPMI medium (Life Technologies, Inc.). Bone marrow cells were obtained from the animals, and low-density, mononuclear bone marrow (LDBM) cells are isolated from fresh bone marrow (BM) by density centrifugation on Histopaque-1083 (Sigma, […].) gradient for 20 min at 1,700 rpm at room temperature. Cells at the interface were collected and washed twice with Roswell Park Memorial Institute (RPMI) Media and then counted on a hemocytometer. […] Cells were subsequently analyzed and sorted for green fluorescence protein (GFP) using a Fluorescence Activated Cell Sorting (FACS) (Becton Dickinson, San Jose, Calif.). […]
The transduction efficiency of the cells was tested using the following assay: Colony assay: 2×10^4 cells re-suspended in 4 mL complete methylcellulose (Metho Cult™ GF M3434, Stem Cell Technologies) were plated in 35 mm grided non-tissue culture dishes (Nalge Nunc Int.) (1 mL/dish). The colonies were scored after 10 days incubation in 5% CO2 at 37° C. […]

hematopoietic stem cells = test: In vivo transplantation and engraftment study (EGFP+ cells by FACS and CFU); design: species or system C57BL/6 mice
Description: FIG. 2 is a graphical representation of the experimental design showing the design for injecting mice with bone marrow cells. The peripheral blood (PB) cells were tested for EGFP+ cells by FACS analysis and the bone marrow (BM) cells were tested for EGFP+ cells by FACS analysis and by CFU assay.
4×10^5 cells were injected into C57BL/6 mice (8-10 weeks old). Prior to the transplant, the mice were irradiated with 11.75 Gy in split dose (7 Gy and 4.75 Gy) using a Cs^137 source with a minimum of 3 h between doses. For engraftment studies, 100 μL tail vein blood samples were withdrawn from each transplanted mouse every 4 weeks. Peripheral blood cells were incubated in red blood cell lysis buffer (Pharmingen, San Diego, Calif.) for […] at room temperature. Cells were then washed twice and re-suspended in 1 ml of PBS and 0.2% bovine serum albumin (BSA) (Roche Applied Sciences, Indianapolis, Ind.). The percentages of GFP^+ cells of each sample were analyzed by flow cytometry. Sixteen weeks post transplant bone marrow and spleen were isolated from the experimental animals. Cells isolated from these organs were incubated in red blood cells lysis buffer, re-suspended in PBS, 0.2% BSA and analyzed by flow cytometry, as described above.
The ability of hematopoietic progenitor cells to form colonies was analyzed in the presence of various transgenes expressing normal and mutated forms of GTPases. […]

Substance	ability of hematopoietic progenitor cells to form colonies [1]	engraftment: EGFP+ peripheral blood cells in transplanted animals (hematopoietic stem cells; 3, 7, 11 and 16 weeks post transplant, normalized to control cells at 3 weeks, FIG. 6)	stem cell (HSC) engraftment (hematopoietic stem cells; peripheral blood, bone marrow, spleen, CFU, secondary transplant, FIGS. 6, 8, 9 and 10)
Cdc42N17: dominant negative Cdc42 cDNA cloned into a murine stem cell virus-based bicistronic EGFP vector	not affected	–	–
RhoAN19: dominant negative mouse RhoA protein with threonine to asparagine point mutation at position 19, expressed from retroviral vector	not affected	advantageous	advantageous
